Laboratory results: PMC11054638, “Transport of Non-Steroidal Anti-Inflammatory Drugs across an Oral Mucosa Epithelium In Vitro Model” (Pharmaceutics, 2024)
Like-named read-outs stand apart in the source and are kept apart here.

Assays:
[1] = in vitro; conditions: human
Procedure: (§1) As soon as cells reached confluency, cultivation was switched from submerged to airlift and 1% Human Keratinocytes Growth Supplements (HKGS, Gibco, Thermofisher, Vienna, Austria, S0015) was added to the cultivation media on the basolateral compartment. Media were changed every 2–3 days until the day of experiment on day 29. Cells from passage 14–36 were used for experiments. Transepithelial electric resistance (TEER) was measured on day of experiment, as described in detail previously.
(§2) Solutions were diluted to 10 µM (carboxyfluorescein) or 100 µM in DMEM on day of experiments.
(§3) First, TEER was measured in cultivation media on the day of experiment. Afterwards, cells and blanks were washed twice with DMEM on the apical (300 µL) and basolateral (900 µL) compartments and selected cells and blanks were treated with DMEM with or without 100 µM probenecid or verapamil on the apical and basolateral side at 37 °C for 30 min. […] To cells which were pre-incubated with probenecid or verapamil, 100 µM probenecid or verapamil was applied apically as well. DMSO content was adapted for cells with no inhibitors, and DMSO and dd-H2O content was adjusted in the basolateral compartment as well in order to apply the same vehicle concentrations on the apical and basolateral compartment. […] Subsequently, duplicates of apical sample were collected, and samples were frozen at −80 °C until further analysis with High-Performance Liquid Chromatography (HPLC).
(§4) Peaks were quantified using the software Chromeleon Version 7.2.6, and corresponding mili absorbance unit × time [mAU × min] values were used for data analysis.
(§5) Mean values of relative fluorescence unit (RFU) or detected area [mAU × min] were used for calculation. For the first timepoint, the clearance [µL] for the detected area was calculated as shown in the formula below (1a), with Abasot1 as the measured area [mAU × min] at the first time point of the basolateral sample, Vbaso as the basolateral volume [µL] and Astock as the area measured for the applied stock solution. […] Clearance [µL] for carboxyfluorescein was calculated with the same formulas using RFU. (1a) Clearance=Abasot1×Vbaso/AStock (1b) Clearancetn=Abasotn×Vbaso/AStock−∑(Abasotn−1 ×3− Abasot1 ×3)
(§6) Cleared volume [µL] was calculated by plotting the sum of clearance at all time points over time [min]. The resulting slope PS [µL/min] was calculated inversely. For calculation of the PScell, the inverse PS blanks were subtracted, as shown below in Formula (2). (2) 1/PScell=1/PSall−1/PSblank
(§7) The final permeability coefficient is calculated by dividing the inverse PScell by the area of the ThinCerts (0.336 cm^2) and multiplying by a conversion factor to give the permeability coefficient as µm/min.

[2] = system: oral mucosa epithelium in vitro model based on human cell line TR146; assay: Transport study across oral mucosa Transwell model, apical to basolateral, 240 min; conditions: for permeability coefficient: mean ± SEM
Procedure: as §1, §2, §3, §4, §5, §6, §7

[3] = Transport study across blank inserts without cells; conditions: Ibuprofen study, mean ± SD
Procedure: as §3, §5, §6

[4] = system: TR146 cell layers; assay: TEER after 48 h inflammation study; type: cell-based, human; conditions: 48 h treatment; ibuprofen 100 µM; cytokines 100 ng/mL each
[5] = system: JAK1, TRAF2 and RELA mRNA in TR146 cells; assay: qPCR of JAK1, TRAF2 and RELA after inflammation study; type: cell-based, human; conditions: 48 h
Procedure: ® were seeded with cells as described above. […] Prior to treating cells with prepared DMEM solutions, TEER was measured in cultivation media DMEM supplemented with 1% Penicillin/Streptomycin and 10% Fetal Calf Serum. Subsequently, cell layers and blanks were washed with DMEM (without supplements) twice on the apical and basolateral compartment, followed by TEER measurements in DMEM. Media of cells were replaced with previously prepared DMEM solutions. Control media was applied on the blanks. After 48 h treatment at 37 °C, 5% CO2 and 95% humidity TEER was measured. […] Media were immediately collected and measured for the RFU content using the EnSpire as described above. Afterwards, media were stored at -20 °C until further usage. […] For qPCR, samples were analysed as triplicates using the LightCycler480 II (Roche) with the program described in Lin et al. with primers for 18SrRNA (5'-3' forward: [NT], 5'-3' reverse: [NT], Janus Kinase 1 transcript variant a (JAK1tva) (5'-3' forward: [NT], 5'-3' reverse: [NT], JAK1tvb (5'-3' forward: [NT], 5'-3' reverse: [NT], JAK1tvc (5'-3' forward: [NT], 5'-3' reverse: [NT] Receptor Associated Factor 2 (TRAF2) tvb (5'-3' forward: [NT], 5'-3' reverse: […]2tvc (5'-3' forward: [NT], 5'-3' reverse: [NT] and nuclear factor κB (NF-κB) RelA (forward 5'-3': [NT], reverse 5'-3': […]

[6] = system: TR146 cell layers
[7] = after oral administration of 200 mg ref 52, 53; cited from earlier work
[8] = in vitro; conditions: human, not told, permeability coefficient, without probenecid
[9] = Ibuprofen study, Probenecid, mean ± SD
[10] = Ibuprofen study, Verapamil, mean ± SD
[11] = Ibuprofen study, w/o Inhibitor, mean ± SD

CC(C)Cc1ccc(C(C)C(=O)O)cc1 (stereo not drawn) [ibuprofen]
Papp A→B at 240 min ([1]; PC (permeability of cell)): 13.1 ×10⁻⁶ cm/s
Papp A→B at 240 min ([1]; PE (permeability of cell + blank)): 5.45 ×10⁻⁶ cm/s
PS all (cell + blank) [2, 9]: 0.12 ± 0.03 µL/min
PS cell [2, 9]: 0.26 ± 0.11 µL/min
PS all (cell + blank) [2, 10]: 0.11 ± 0.01 µL/min
PS cell [2, 10]: 0.24 ± 0.04 µL/min
PE (permeability of cell + blank) [2, 11]: 2.94 ± 0.3 µm/min
PS all (cell + blank) [2, 11]: 0.1 ± 0.01 µL/min
PS cell [2, 11]: 0.19 ± 0.05 µL/min
Permeability coefficient without inflammation and inhibitor ([2]; Table S3, mean ± SD): 5.77 ± 1.48 µm/min
PE (permeability of cell + blank) ([2]; human, 240 min): 3.47 ± 0.76 µm/min
increase of permeability coefficient with probenecid compared to no inhibitor ([2]; human, 240 min, 100 µM): 1.36 fold
increase of permeability coefficient with verapamil compared to no inhibitor ([2]; human, 240 min, 100 µM): 1.23 fold
cumulated concentration of NSAID in the basolateral compartment ([2]; human, 4 h, 100 µM): 0.067 ± 0.0078 nmol/mm^2
permeability coefficient ([2]; with 100 µM probenecid): 7.87 ± 1.32 µm/min
permeability coefficient ([2]; with 100 µM verapamil): 7.13 ± 0.51 µm/min
permeability coefficient ([2]; without inhibitor, 100 µM apical (CF 10 µM)): 5.77 ± 0.60 µm/min
PS blank ([3]; Probenecid): 0.22 ± 0.02 µL/min
PS blank ([3]; Verapamil): 0.21 ± 0.02 µL/min
PS blank ([3]; w/o Inhibitor): 0.21 ± 0.03 µL/min
TEER values after 48 h [4]: 69.65 ± 9.10 Ω × cm^2
RELA mRNA expression ([5]; 100 µM ibuprofen with inflammatory cytokines, p < 0.05): inhibit the increase in RELA
JAK1 and TRAF2 mRNA expression ([5]; cytokines 100 ng/mL each, ibuprofen 100 µM added during inflammation): did not block the upregulation
regulation of permeability with or without probenecid ([6]; cells treated with cytokines): no distinct regulation
higher permeability by addition of probenecid ([6]; cells treated with ibuprofen previously): 52.64%
higher permeability by addition of probenecid ([6]; control group): 42.46%
plasma concentration [7]: 116 to 142.5 µM
Papp A→B at 4 h ([8]; cell layers pre-treated with cytokines 48 h, 4 h transport): 33.4 ×10⁻⁶ cm/s
Papp A→B at 4 h ([8]; cell layers pre-treated with cytokines plus ibuprofen 48 h, 4 h transport): 35.1 ×10⁻⁶ cm/s
Papp A→B at 4 h ([8]; control cell layers, 4 h transport after 48 h): 24 ×10⁻⁶ cm/s
